Results taken from patent US8871796B2, “Diaryl ether derivatives as notch sparing gamma secretase inhibitors” (Merck Sharp & Dohme Corp., priority 2009, dated 2014).
Read-outs that look alike come from different tables or passages of the source.

Test: APP processing: AlphaLisa assay of secreted Aβ40 and Aβ42 from SP4CT cells
Assay type: cell-based
Conditions: Homo sapiens, SH-SY5Y cells expressing amyloid β protein (SP4CT cells)
Protocol: APP Processing (Assay Quantitates Secreted Aβ Analytes from Cell Lines):
The effect of compounds on the abundance of Aβ40 and Aβ42 peptides generated from SH-SY5Y cells expressing amyloid β protein (SP4CT cells) are determined by an AlphaLisa™ assay. Analogous to an ELISA assay, generation of […] AlphaLisa™ assay requires “donor” and “acceptor” beads to be brought in close proximity by specific antibody recognition of either Aβ40 or Aβ42 peptides. The assay is accomplished by removing media from compound-treated SP4CT cells to two different microplates, followed by the addition of donor beads conjugated with streptavidin binding a biotinylated anti-amyloid β monocolonal antibody (clone 4G8). Acceptor beads directly conjugated with anti-Aβ40 monoclonal antibody (G210) are added to one microplate and anti-Aβ42 monoclonal antibody (12F4) acceptor beads were added to the other. Abundance of Aβ40 and Aβ42 is directly proportional to the luminescent signal generated following excitation of donor beads by laser light.

[1] = read-out: IC50, inhibition of production of Aβ40 peptide
[2] = read-out: IC50, inhibition of production of Aβ42 peptide

Row | SMILES | IC50 [1] [nM] | IC50 [2] [nM]
1 | CCn1nc(-c2cccc(C(C)(C)NS(=O)(=O)CC(F)(F)F)c2)c(C#N)c1Oc1ccc(C(F)(F)F)cc1 [Example 117, N-[2-(3-{4-cyano-1-ethyl-5-[4-(trifluoromethyl)phenoxy]-1H-pyrazol-3-yl}phenyl)propan-2-yl]-2,2,2-trifluoroethanesulfonamide] | < 200 | < 200
2 | CCn1nc(Oc2ccc(C(F)(F)F)cc2)cc1-c1cccc(C(C)(C)NS(=O)(=O)NC2CCCC2)c1 [Example 18, N-cyclopentyl-N′-[1-(3-{1-ethyl-3-[4-(trifluoromethyl)phenoxy]-H-pyrazol-5-yl}phenyl)-1-methylethyl]sulfamide] | < 200 | < 200
3 | CCn1nc(-c2cccc(C(C)(C)NS(=O)(=O)CC(F)(F)F)c2)cc1Oc1ccc(CN2CC=C(C(F)(F)F)CC2)cc1 [Example 80, N-(1-{3-[1-ethyl-5-(4-{[4-(trifluoromethyl)-3,6-dihydropyridin-1(2H)-yl]methyl}phenoxy)-1H-pyrazol-3-yl]phenyl}-1-methylethyl)-2,2,2-trifluoroethanesulfonamide] | < 200 | < 200
4 | O=S(=O)(CC(F)(F)F)NC1(c2cccc(-c3cc(Oc4ccc(C(F)(F)F)cc4)nn3Cc3cocn3)c2)COC1 [Example 135, N-(3-{3-[3-(4-trifluoromethylphenoxy)-1-(1,3-oxazol-4-ylmethyl)-1H-pyrazol-5-yl]phenyl}oxetan-3-yl)-2,2,2-trifluoroethanesulfonamide] | < 200 | < 200
5 | CCn1nc(-c2cccc(C(C)(C)NS(=O)(=O)CC(F)(F)F)c2)cc1Oc1ccc(CNc2ccccc2)cc1 [Example 84, N-[1-(3-{5-[4-(anilinomethyl)phenoxy]-1-ethyl-1H-pyrazol-3-yl}phenyl)-1-methylethyl]-2,2,2-trifluoroethanesulfonamide] | < 200 | < 200
6 | O=S(=O)(CC(F)(F)F)NC1(c2cccc(-c3cc(Oc4ccc(C(F)(F)F)cc4)n(CC4CCCO4)n3)c2)COC1 (stereo not drawn) [Example 138, N-(3-{3-[5-(4-trifluoromethylphenoxy)-1-(tetrahydrofuran-2-ylmethyl)-1H-pyrazol-3-yl]phenyl}oxetan-3-yl)-2,2,2-trifluoroethanesulfonamide] | < 200 | < 200
7 | CCn1nc(Oc2ccc(C(F)(F)F)cc2)cc1-c1cccc(C(C)(C)NS(=O)(=O)N(C)C)c1 [Example 25, N′-[1-(3-{1-ethyl-3-[4-(trifluoromethyl)phenoxy]-1H-pyrazol-5-yl}phenyl)-1-methylethyl]-N,N-dimethylsulfamide] | < 200 | < 200
8 | CCC(O)c1ccc(Oc2cc(-c3cccc(C(C)(C)NS(=O)(=O)CC(F)(F)F)c3)nn2CC)cc1 (stereo not drawn) [Example 67, N-[1-(3-{1-ethyl-5-[4-(1-hydroxypropyl)phenoxy]-1H-pyrazol-3-yl}phenyl)-1-methylethyl]-2,2,2-trifluoroethanesulfonamide] | < 200 | < 200
9 | CCn1nc(Oc2ccc(C(F)(F)F)cc2F)cc1-c1cccc(C(C)(C)NS(=O)(=O)CC(F)(F)F)c1 [Example 21, N-[1-(3-{1-ethyl-3-[2-fluoro-4-(trifluoromethyl)phenoxy]-1H-pyrazol-5-yl}phenyl)-1-methylethyl]-2,2,2-trifluoroethanesulfonamide] | < 200 | < 200
10 | CCn1nc(-c2cccc(C(C)(C)NS(=O)(=O)CC(F)(F)F)c2)cc1Oc1ccc(C(C)O)cc1 (stereo not drawn) [Example 65, N-[1-(3-{1-ethyl-5-[4-(1-hydroxyethyl)phenoxy]-1H-pyrazol-3-yl}phenyl)-1-methylethyl]-2,2,2-trifluoroethanesulfonamide] | < 200 | < 200
11 | CCn1nc(-c2cccc(C(C)(C)NS(=O)(=O)CC(F)(F)F)c2)cc1Oc1ccc(C(F)C(F)(F)F)cc1 (stereo not drawn) [Example 72, N-[1-(3-{1-ethyl-5-[4-(1,2,2,2-tetrafluoroethyl)phenoxy]-1H-pyrazol-3-yl}phenyl)-1-methylethyl]-2,2,2-trifluoroethanesulfonamide] | < 200 | < 200
12 | CCn1nc(-c2cncc(C3(NS(=O)(=O)NCC(F)(F)F)COC3)c2)cc1Oc1ccc(C(F)(F)F)cc1 [Example 127, N-[3-(5-{1-ethyl-5-[4-(trifluoromethyl)phenoxy]-1H-pyrazol-3-yl}pyridine-3-yl)oxetan-3-yl]-N′-(2,2,2-trifluoroethyl)sulfamide] | < 200 | < 200
13 | Cc1cc(Cn2nc(-c3cccc(C4(NS(=O)(=O)CC(F)(F)F)COC4)c3)cc2Oc2ccc(C(F)(F)F)cc2)on1 [Example 137, N-(3-{3-[5-(4-trifluoromethylphenoxy)-1-(5-methyl-1,2-isoxazol-3-ylmethyl)-1H-pyrazol-3-yl]phenyl}oxetan-3-yl)-2,2,2-trifluoroethanesulfonamide] | < 200 | < 200
14 | CCn1nc(Oc2ccc(C(F)(F)F)cn2)cc1-c1ccc2c(c1)CC(NS(=O)(=O)NCC(F)(F)F)C2 (stereo not drawn) [Example 122, N-[5-(1-ethyl-3-{[5-(trifluoromethyl)pyridin-2-yl]oxy}-1H-pyrazol-5-yl)-2,3-dihydro-1H-inden-2-yl]-N′-(2,2,2-trifluoroethyl)sulfamide] | < 200 | < 200
15 | COCCn1nc(-c2cccc(C3(NS(=O)(=O)CC(F)(F)F)COC3)c2)cc1Oc1ccc(C(F)(F)F)cc1 [Example 141, N-(3-{3-[5-(4-trifluoromethylphenoxy)-1-(2-methoxyethyl)-1H-pyrazol-2-yl]phenyl}oxetan-3-yl)-2,2,2-trifluoroethanesulfonamide] | < 200 | < 200
16 | CCn1nc(-c2cccc(C(C)(C)NS(=O)(=O)CC(F)(F)F)c2)cc1Oc1ccc(-c2cnco2)cc1 [Example 76, N-[1-(3-{1-ethyl-5-[4-(1,3-oxazol-5-yl)phenoxy]-1H-pyrazol-3-yl}phenyl)-1-methylethyl]-2,2,2-trifluoroethanesulfonamide] | < 200 | < 200
17 | CCn1nc(Oc2ccc(C(F)(F)F)cc2)cc1-c1cccc(C(C)(C)NS(=O)(=O)NC2CCC2)c1 [Example 16, N-cyclobutyl-N′-[1-(3-{1-ethyl-3-[4-(trifluoromethyl)phenoxy]-1H-pyrazol-5-yl}phenyl)-1-methylethyl]sulfamide] | < 200 | < 200

Further lines, results first:

Row | IC50 [1] [nM] | IC50 [2] [nM] | SMILES
18 | < 200 | < 200 | CCn1nc(-c2cncc(C3(NS(=O)(=O)CC(F)(F)F)CC3)c2)cc1Oc1ccc(C(F)(F)F)cc1 [Example 52, N-[1-(5-{1-ethyl-5-[4-(trifluoromethyl)phenoxy]-1H-pyrazol-3-yl}pyridin-3-yl)cyclopropyl]-2,2,2-trifluoroethanesulfonamide]
19 | < 200 | < 200 | CNC(=O)Cn1nc(-c2cccc(C3(NS(=O)(=O)CC(F)(F)F)COC3)c2)cc1Oc1ccc(C(F)(F)F)cc1 [Example 132, 2-[5-(4-trifluoromethylphenoxy)-3-(3-{3-[(2,2,2-trifluoroethylsulfonyl)amino]oxetan-3-yl}phenyl)-1H-pyrazol-1-yl]-N-methylacetamide]
20 | < 200 | < 200 | CCn1nc(-c2cccc(C(C)(C)NS(=O)(=O)N(C)C)c2)cc1Oc1ccc(C(F)(F)F)cc1 [Example 14, N′-[1-(3-{1-ethyl-5-[4-(trifluoromethyl)phenoxy]-1H-pyrazol-3-yl}phenyl)-1-methylethyl]-N,N-dimethylsulfamide]
21 | < 200 | < 200 | CCn1nc(Oc2ccc(F)cc2)cc1-c1cccc(C(C)(C)NS(=O)(=O)NC2CCC2)c1 [Example 54, N-cyclobutyl-N′-(1-{3-[1-ethyl-3-(4-fluorophenoxy)-1H-pyrazol-5-yl]phenyl}-1-methylethyl)sulfamide]
22 | < 200 | < 200 | CCn1nc(-c2cccc(C(C)(C)NS(=O)(=O)CC(F)(F)F)c2)cc1Oc1ccccc1F [Example 7, N-(1-{3-[1-ethyl-5-(2-fluorophenoxy)-1H-pyrazol-3-yl]phenyl}-1-methylethyl)-2,2,2-trifluoroethanesulfonamide]
23 | < 200 | < 200 | CCn1nc(-c2cccc(C3(NS(=O)(=O)CC(F)(F)F)CCC3)c2)cc1Oc1ccc(C(F)(F)F)cc1 [Example 109, N-[1-(3-{1-ethyl-5-[4-(trifluoromethyl)phenoxy]-1H-pyrazol-3-yl}phenyl)cyclobutyl]-2,2,2-trifluoroethanesulfonamide]
24 | < 200 | < 200 | CCn1nc(-c2cccc(C3(NS(=O)(=O)NC)COC3)c2)cc1Oc1ccc(C(F)(F)F)cc1 [Example 97, N-[3-(3-{1-ethyl-5-[4-(trifluoromethyl)phenoxy]-1H-pyrazol-3-yl}phenyl)oxetan-3-yl]-N′-methylsulfamide]
25 | < 200 | < 200 | CCn1nc(-c2cccc(C3(NS(=O)(=O)CC(F)(F)F)COC3)c2)cc1Oc1ccc(C#N)cc1 [Example 128]
26 | < 200 | < 200 | CCn1nc(-c2cccc(C3(NS(=O)(=O)CC(F)(F)F)CC3)c2)cc1Oc1ccncc1 [Example 50, N-(1-{3-[1-ethyl-5-(pyridin-4-yloxy)-1H-pyrazol-3-yl]phenyl}cyclopropyl)-2,2,2-trifluoroethanesulfonamide]
27 | < 200 | < 200 | CCn1nc(Oc2ccc(C(F)(F)F)cc2)cc1-c1cccc(C(C)(C)NS(=O)(=O)N2CCCC2)c1 [Example 26, N-[1-(3-{1-ethyl-3-[4-(trifluoromethyl)phenoxy]-1H-pyrazol-5-yl}phenyl)-1-methylethyl]pyrrolidine-1-sulfonamide]
